Measured values as given in US20140100290A1, “Method of treating a prostate condition” (priority 2012, published 2014).
Where two headings read alike, the source gives them in different places.

Assays:
[1] = system: PARP cleavage in LNCaP cells; test: Western blot analysis of PARP cleavage in LNCaP cells; type: cell-based, Human; conditions: 48 h treatment
Method: Human metastatic prostate cancer cells, LNCaP, were obtained from ATCC (Manassas, Va., USA). Cells were grown in RPMI-1640 medium supplemented with 2mM glutamine, 10% FBS, 100 U/mL penicillin, and 100 μg/mL streptomycin. LNCaP cells were maintained in a humidified atmosphere of 5% CO2 at 37° C. in T-75 flasks and were subcultured when confluent. Experiments were conducted using cells with passage numbers ranging from 5-20.
Western blotting is a widely used analytical technique for detection of specific proteins separated from one another, according to their size, by gel electrophoresis. Application of an electric current induces proteins on the gel to move on to the membrane (nitrocellulose or PVDF) placed next to it. Proteins on the gel get transferred on to the membrane which is subsequently stained with the antibody. Once detected, the target protein will be visualized as a band on a blotting membrane, X-ray film, or an imaging system. […]
After maintaining constant agitation at 4° C. for 30 minutes, lysates were collected in microcentrifuge tubes and centrifuged at 12,000 rpm at 4° C. for 20 minutes. […] Protein concentration was determined using the Pierce® BCA protein assay kit. […] Western blot images are representative of at least 3 independent experiments, while quantification data represent mean±S.E.M. of n>3 experiments.

PC-3 cells = test: XTT cell proliferation (cell viability) assay in PC-3 cells; type: cell-based; conditions: Homo sapiens, mean±S.E.M., read-out: IC50 (anti-proliferative activity, XTT)
Method: Cell Line and Culture Conditions • Human metastatic, androgen insensitive prostate cancer cells, PC-3, were obtained from ATCC (Manassas, Va., USA). Cells were grown in F-12K medium supplemented with 2 mM glutamine, 10% FBS, 100 U/mL penicillin, and 100 μg/mL streptomycin. PC-3 cells were maintained in a humidified atmosphere of 5% CO2 at 37° C. in T-75 flasks and were subcultured when confluent.
The anti-proliferative effect of carvacrol was assessed in PC-3 cells using the XTT cell proliferation assay. This assay is a colorimetric assay that is used to measure cell growth and drug sensitivity in tumor cell lines by measuring the internal environment of the proliferating cell, which is more reduced than that of non-proliferating cells. In this assay, the second generation tetrazolium dye, XTT (2,3-bis(2-methoxy-4-nitro-5-sulfophenyl)-5-[(phenylamino)-carbonyl]-2H tetrazolium hydroxide), is reduced to a soluble, brightly orange colored formazan derivative. To improve the sensitivity of XTT assay, PMS (N-methyl dibenzopyrazine methyl sulfate), an intermediate electron carrier is used. This color change is accomplished by breaking apart the positively charged quaternary tetrazole ring. An expansion in the number of viable cells results in an increase in the overall activity of mitochondrial dehydrogenases in the sample. […]
PC-3 cells at a density of 10^4 cells/well were seeded into flat-bottom, 96-well microtiter plates (100 μL/well) and allowed to attach and grow for 24 h. […] After incubation, an orange colored formazan product was formed and the absorbance was measured at 475 nm using BioTek microplate reader. […] Cell viability of the drug-treated cells was calculated as a fraction of solvent control and the anti-proliferative activity of carvacrol was expressed in terms of IC50 values. IC50 values were calculated using GraphPad Prism 4 (Graph Pad Software Inc., Calif., USA), and expressed as the means±S.E.M. of n≧3 experiments (each in triplicate).

Cc1ccc(C(C)C)cc1O [Carvacrol]
cleavage of PARP (Western blot) [1]: demonstrated cleavage of PARP | IC50 (PC-3 cells; 24 hr treatment): 2250 ± 79.8 µM | IC50 (PC-3 cells; 48 hr treatment): 1400 ± 98.2 µM | IC50 (PC-3 cells; 96 hr treatment): 1010 ± 63.5 µM
